Data reported in ChEMBL document CHEMBL1158504, “Cell permeability of Py-Im-polyamide-fluorescein conjugates: Influence of molecular size and Py/Im content” (Bioorg Med Chem, 2010).

Assays:
Assay type in all cases: ADME, cell-based; call rule not given here
MCF7 [1] = assay: Cellular uptake in human MCF7 cells assessed as labeled cells at 1 uM after 24 hrs by flow cytometry; conditions: mcf7, 24 h
MCF7 [2] = assay: Cellular uptake in human MCF7 cells assessed as increase in labeled cells at 1 uM after 24 hrs by flow cytometry; conditions: mcf7, 24 h
HEK293 [3] = assay: Cellular uptake in HEK293 cells assessed as localization to nucleus at 1 uM after 24 hrs by fluorescence microscopy; conditions: human, hek293, 24 h
HEK293 [4] = assay: Cellular uptake in HEK293 cells assessed as labeled cells at 1 uM after 24 hrs by flow cytometry; conditions: human, hek293, 24 h
HEK293 [5] = assay: Cellular uptake in HEK293 cells assessed as localization to cytoplasm at 1 uM after 24 hrs by fluorescence microscopy; conditions: human, hek293, 24 h
HEK293 [6] = assay: Cellular uptake in HEK293 cells assessed as intracellular localization at 1 uM after 24 hrs by fluorescence microscopy; conditions: human, hek293, 24 h

Drug uptake (HEK293 [4]) [%]	SMILES	other results
–	CN(C)CCCNC(=O)c1cc(NC(=O)c2cc(NC(=O)c3cc(NC(=O)CCCNC(=O)c4cc(NC(=O)c5cc(NC(=O)c6cc(NC(=O)CCNC(=S)Nc7ccc(-c8c9ccc(=O)cc-9oc9cc(O)ccc89)c(C(=O)O)c7)cn6C)cn5C)cn4C)cn3C)cn2C)cn1C	Drug uptake (MCF7 [1]): > 90%
39	CN(C)CCCNC(=O)c1nc(NC(=O)c2nc(NC(=O)c3nc(NC(=O)CCNc4nc(NC(=O)c5nc(NC(=O)c6nc(NC(=O)CCNC(=S)Nc7ccc(-c8c9ccc(=O)cc-9oc9cc(O)ccc89)c(C(=O)O)c7)cn6C)cn5C)cn4C)cn3C)cn2C)cn1C	Drug uptake (MCF7 [2]): Not Active; Drug uptake (HEK293 [3]): Not Active
53	CN(C)CCCNC(=O)c1nc(NC(=O)c2nc(NC(=O)c3nc(NC(=O)CCNC(=S)Nc4ccc(-c5c6ccc(=O)cc-6oc6cc(O)ccc56)c(C(=O)O)c4)cn3C)cn2C)cn1C	–
3	CN(C)CCCNC(=O)c1nc(NC(=O)c2nc(NC(=O)c3nc(NC(=O)CCNc4nc(NC(=O)c5nc(NC(=O)c6nc(NC(=O)CCNc7nc(NC(=O)c8nc(NC(=O)c9nc(NC(=O)CCNC(=S)Nc%10ccc(-c%11c%12ccc(=O)cc-%12oc%12cc(O)ccc%11%12)c(C(=O)O)c%10)cn9C)cn8C)cn7C)cn6C)cn5C)cn4C)cn3C)cn2C)cn1C	–
> 82	CN(C)CCCNC(=O)c1cc(NC(=O)c2cc(NC(=O)c3cc(NC(=O)CCNc4cc(NC(=O)c5cc(NC(=O)c6cc(NC(=O)CCNc7cc(NC(=O)c8cc(NC(=O)c9cc(NC(=O)CCNc%10cc(NC(=O)c%11cc(NC(=O)c%12cc(NC(=O)CCNc%13cc(NC(=O)c%14cc(NC(=O)c%15cc(NC(=O)CCNC(=S)Nc%16ccc(-c%17c%18ccc(=O)cc-%18oc%18cc(O)ccc%17%18)c(C(=O)O)c%16)cn%15C)cn%14C)cn%13C)cn%12C)cn%11C)cn%10C)cn9C)cn8C)cn7C)cn6C)cn5C)cn4C)cn3C)cn2C)cn1C	Drug uptake (HEK293 [5]): Active
> 82	CN(C)CCCNC(=O)c1cc(NC(=O)c2cc(NC(=O)c3cc(NC(=O)CCNc4cc(NC(=O)c5cc(NC(=O)c6cc(NC(=O)CCNc7cc(NC(=O)c8cc(NC(=O)c9cc(NC(=O)CCNC(=S)Nc%10ccc(-c%11c%12ccc(=O)cc-%12oc%12cc(O)ccc%11%12)c(C(=O)O)c%10)cn9C)cn8C)cn7C)cn6C)cn5C)cn4C)cn3C)cn2C)cn1C	Drug uptake (HEK293 [3]): Active
1.1	CN(C)CCCNC(=O)c1nc(NC(=O)c2nc(NC(=O)c3nc(NC(=O)CCNc4nc(NC(=O)c5nc(NC(=O)c6nc(NC(=O)CCNc7nc(NC(=O)c8nc(NC(=O)c9nc(NC(=O)CCNc%10nc(NC(=O)c%11nc(NC(=O)c%12nc(NC(=O)CCNC(=S)Nc%13ccc(-c%14c%15ccc(=O)cc-%15oc%15cc(O)ccc%14%15)c(C(=O)O)c%13)cn%12C)cn%11C)cn%10C)cn9C)cn8C)cn7C)cn6C)cn5C)cn4C)cn3C)cn2C)cn1C	–
53	CN(C)CCCNC(=O)c1cc(NC(=O)c2cc(NC(=O)c3cc(NC(=O)CCNC(=S)Nc4ccc(-c5c6ccc(=O)cc-6oc6cc(O)ccc56)c(C(=O)O)c4)cn3C)cn2C)cn1C	–
> 82	CN(C)CCCNC(=O)c1cc(NC(=O)c2cc(NC(=O)c3cc(NC(=O)CCNc4cc(NC(=O)c5cc(NC(=O)c6cc(NC(=O)CCNC(=S)Nc7ccc(-c8c9ccc(=O)cc-9oc9cc(O)ccc89)c(C(=O)O)c7)cn6C)cn5C)cn4C)cn3C)cn2C)cn1C	Drug uptake (MCF7 [2]): Active; Drug uptake (HEK293 [3]): Active
> 82	CN(C)CCCNC(=O)c1cc(NC(=O)c2cc(NC(=O)c3cc(NC(=O)CCNc4cc(NC(=O)c5cc(NC(=O)c6cc(NC(=O)CCNc7cc(NC(=O)c8cc(NC(=O)c9cc(NC(=O)CCNc%10cc(NC(=O)c%11cc(NC(=O)c%12cc(NC(=O)CCNc%13cc(NC(=O)c%14cc(NC(=O)c%15cc(NC(=O)CCNc%16cc(NC(=O)c%17cc(NC(=O)c%18cc(NC(=O)CCNC(=S)Nc%19ccc(-c%20c%21ccc(=O)cc-%21oc%21cc(O)ccc%20%21)c(C(=O)O)c%19)cn%18C)cn%17C)cn%16C)cn%15C)cn%14C)cn%13C)cn%12C)cn%11C)cn%10C)cn9C)cn8C)cn7C)cn6C)cn5C)cn4C)cn3C)cn2C)cn1C	Drug uptake (HEK293 [5]): Active; Drug uptake (HEK293 [6]): Active
> 82	CN(C)CCCNC(=O)c1cc(NC(=O)c2cc(NC(=O)c3cc(NC(=O)CCNc4cc(NC(=O)c5cc(NC(=O)c6cc(NC(=O)CCNc7cc(NC(=O)c8cc(NC(=O)c9cc(NC(=O)CCNc%10cc(NC(=O)c%11cc(NC(=O)c%12cc(NC(=O)CCNC(=S)Nc%13ccc(-c%14c%15ccc(=O)cc-%15oc%15cc(O)ccc%14%15)c(C(=O)O)c%13)cn%12C)cn%11C)cn%10C)cn9C)cn8C)cn7C)cn6C)cn5C)cn4C)cn3C)cn2C)cn1C	–
